Test results reported in patent US7326715B2, “4-Phenyl-6-substituted-pyrimidine-2-carbonitrile derivatives” (N.V. Organon, priority 2005, dated 2008).
Where a name gives a salt, the structure may show the parent alone.

target: T1, recombinant human Cathepsin K (Homo sapiens, UniProt P43235); assay: Cathepsin K activity: inhibition of recombinant human Cathepsin K (Z-Phe-Arg-AMC fluorescence); type: biochemical; conditions: substrate Z-Phe-Arg-AMC, pH 5.5, fluorescence at 10 minutes, read-out: pIC50 (negative logarithm of the IC50 concentration) for inhibition of human cathepsin K (converted)
T1 sequence (P43235 115-329): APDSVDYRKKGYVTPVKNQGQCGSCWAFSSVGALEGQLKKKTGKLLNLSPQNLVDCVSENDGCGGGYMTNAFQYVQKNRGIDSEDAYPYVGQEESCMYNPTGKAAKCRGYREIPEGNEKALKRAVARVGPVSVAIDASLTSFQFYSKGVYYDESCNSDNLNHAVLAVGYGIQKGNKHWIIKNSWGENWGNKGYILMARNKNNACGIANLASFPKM
Protocol: To a 384 well microtitre plate is added 5 μl of a 100 μM solution of test compound in assay buffer (100 mM sodium acetate pH 5.5, 5 mM EDTA, 5 mM dithiothreitol) with 10% dimethylsulfoxide (DMSO), plus 10 μl of 100 μM solution of the substratre Z-Phe-Arg-AMC (Bachem; 7-amido-coumarine derivative of the dipeptide N-benzyloxycarbonyl-Phe-Arg-OH) in assay buffer and 25 μl of assay buffer. 10 μl of a 1 mg/l solution of activated recombinant human cathepsin K, in assay buffer, is then added to the well, yielding a final inhibitor concentration of 10 μM. Enzyme activity is determined by measuring the fluorescence of the liberated aminomethylcoumarin at […] using 390 nm excitation, at 10 minutes. Percentage enzyme activity is calculated by comparison of this activity to that of a solution containing no inhibitor. Compounds are subsequently subjected to a dose response curve analysis in order to determine IC50 values for active compounds (where IC50 is the concentration of test compound causing 50% inhibition of the enzymatic activity).
Compounds of the invention typically have a pIC50 (negative logarithm of the IC50 concentration) for inhibition of human cathepsin K of more than 6, preferably more than 7 and most preferably a pIC50 of more than 8, such as for the compounds of Examples 1, 2a, 2b, 3, 5, 6, 8, 12, 14, 13, 16k, 16n, 16o, 17, 22a, 22b, 22c

IC50	SMILES
< 10 nM	CCN(CC)CCOc1cc(-c2cccc(C(F)(F)F)c2)nc(C#N)n1 [Example 22c, 4-(2-Diethylamino-ethoxy)-6-(3-trifluoromethyl-phenyl)-pyrimidine-2-carbonitrile]
< 10 nM	CN1CCN(c2cc(-c3cccc(C(F)(F)F)c3)nc(C#N)n2)CC1(C)C [Example 12, 4-(3,3,4-Trimethyl-piperazin-1-yl)-6-(3-trifluoromethyl-phenyl)-pyrimidine-2-carbonitrile]
< 10 nM	N#Cc1nc(-c2cccc(C(F)(F)F)c2)cc(N2CCNCC2)n1 [Example 1, 4-(Piperazin-1-y)l-6-(3-trifluoromethylphenyl)-pyrimidine-2-carbonitrile]
< 10 nM	N#Cc1nc(-c2cccc(C(F)(F)F)c2)cc(N2CCN(C3CC3)CC2)n1 [Example 8, 4-(4-Cyclopropyl-piperazin-1-yl)-6-(trifluoromethyl-phenyl)-pyrimidine-2-carbonitrile hydrochloric acid salt]
< 10 nM	N#Cc1nc(-c2cccc(C(F)(F)F)c2)cc(N2CCN(CC3CC3)CC2)n1 [Example 6, 4-(4-Cyclopropylmethyl-piperazin-1-yl)-6-(trifluoromethyl-phenyl)-pyrimidine-2-carbonitrile trifluoroacetic acid salt]
< 10 nM	N#Cc1nc(-c2cccc(C(F)(F)F)c2)cc(N2CCCNCC2)n1 [Example 13, 4-[1,4]Diazepan-1-yl-6-(3-trifluoromethylphenyl)-pyrimidine-2-carbonitrile]
< 10 nM	N#Cc1nc(NCc2nnn[nH]2)cc(-c2cccc(C(F)(F)F)c2)n1 [Example 16n, 4-[(1H-Tetrazol-5-ylmethyl)-amino]-6-(3-trifluoromethyl-phenyl)-pyrimidine-2-carbonitrile]
< 10 nM	N#Cc1nc(OCCN2CCOCC2)cc(-c2cccc(C(F)(F)F)c2)n1 [Example 22b, 4-(2-Morpholin-4-yl-ethoxy)-6-(3-trifluoromethyl-phenyl)-pyrimidine-2-carbonitrile]
< 10 nM	N#Cc1nc(OCCN2CCCCC2)cc(-c2cccc(C(F)(F)F)c2)n1 [Example 22a, 4-(2-Piperidin-1-yl-ethoxy)-6-(3-trifluoromethyl-phenyl)-pyrimidine-2-carbonitrile]
< 10 nM	N#Cc1nc(-c2cccc(C(F)(F)F)c2)cc(N2CCN(CC(N)=O)CC2)n1 [Example 2b, 4-(4-carbamoylmethyl-piperazin-1-yl)-6-(3-trifluoromethyl-phenyl)-pyrimidine-2-carbonitrile]
< 10 nM	COCCN1CCN(c2cc(-c3cccc(C(F)(F)F)c3)nc(C#N)n2)CC1 [Example 2a, 4-[4-(2-Methoxy-ethyl)-piperazin-1-yl]-6-(3-trifluoromethy-phenyl)-pyrimidine-2-carbonitrile]
< 10 nM	CN1CCCN(c2cc(-c3cccc(C(F)(F)F)c3)nc(C#N)n2)CC1 [Example 14, 4-(4-Methyl-[1,4]diazepan-1-yl)-6-(3-trifluoromethyl-phenyl)-pyrimidine-2-carbonitrile]
< 10 nM	N#Cc1nc(NCC(=O)O)cc(-c2cccc(C(F)(F)F)c2)n1 [Example 16o, 4-(Carboxymethyl-amino)-6-(3-trifluoromethyl-phenyl)-pyrimidine-2-carbonitrile]

SMILES	IC50
CN1CCC(N(C)c2cc(-c3cccc(C(F)(F)F)c3)nc(C#N)n2)CC1 [Example 16k, 4-[Methyl-(1-methyl-piperidin-4-yl)-amino]-6-(3-trifluoromethyl-phenyl)-pyrimidine-2-carbonitrile trifluoroacetic acid salt]	< 10 nM
N#Cc1nc(-c2cccc(C(F)(F)F)c2)cc(N2CCN(CCC(=O)O)CC2)n1 [Example 5, 4-[4-(2-carboxy-ethyl)-piperazin-1-yl]-6-(3-trifluoromethyl-phenyl)-pyrimidine-2-carbonitrile trifluoroacetic acid salt]	< 10 nM
COc1ccc(-c2cc(N3CCNCC3)nc(C#N)n2)cc1C(F)(F)F [Example 17, 4-(4-Methoxy-3-trifluoromethyl-phenyl)-6-piperazin-1-yl-pyrimidine-2-carbonitrile]	< 10 nM
